A word on the ED50: it is the dose at which the effect has come halfway, by size or by number of responders.

Here are results for one molecule from patent US20070225278A1, “Methods for treating cognitive and other disorders” (priority 2006, published 2007).

Each structure is given as a SMILES string.

The data set has as its system male Sprague-Dawley rats. Description: Schedule-induced polydipsia (SIP) in rats. Format: in vivo, rat. From the text: SIP is a model of obsessive-compulsive disorder. In this model, a food pellet is delivered once per minute for a two-hour period. A water bottle is available in the chamber. […] This excessive manifestation of a normal behavior (drinking) provides face validity to the model. […] Most importantly, clinically effective drugs for the treatment of obsessive-compulsive disorder decrease adjunctive drinking.
Animals: Male Sprague-Dawley rats weighing 275-325 g were individually housed in wire hanging cages. Each cage was equipped with a water spigot attached to an automated watering system which allow free access to water at all times.
Methods Rats were placed in an operant chamber (Med Associates) equipped with a pellet dispenser, a food receptacle, a houselight and a water bottle with 100 ml of water. Houselights were turned on in the chamber and a food pellet (Bioserve, 45 mg) was delivered on a fixed-time 60 sec schedule, such that one pellet was delivered each minute during a 2 hour experimental session. At the end of the session, water intake was measured.
Experiments to control for schedule and baseline water intake were conducted by placing 120 pellets in the food receptacle at the start of a 2-hour experimental session. Houselights were turned on, but no additional food pellets were delivered. At the end of the session, water intake was measured.
Dose calculations were based on active moiety.
Evaluation of Results Data were analyzed using a one-way ANOVA. Post hoc tests comparing vehicle to doses of Compound 1 were conducted using contrasts in a least squares model. An ED50 value (dose decreasing polydipsic intake to 50% of vehicle values) was calculated using nonlinear regression models.

Regarding `c1cc2c3c(c1)[C@H]1CCC[C@H]1N3CCNC2` [Compound 1], the “change in excessive water intake” value is listed as −43% (3 mg/kg ip, p=0.0003) and −87% (10 mg/kg ip, p<0.0001). In addition, under “Rattus norvegicus, ip, read-out: ED50 (dose decreasing polydipsic intake to 50% of vehicle values)”, the 50% effective dose (ED50) came out at 3.16 mg/kg. Also, the “rats that did not eat all of their food pellets during the 2-hour session” value (highest dose (10 mg/kg ip)) is 3 of 10. In addition, where the note is “ip, acute, 2 hour session”, the “MED for decrease in adjunctive drinking” value came out at 3 mg/kg.
